Test results: ChEMBL document CHEMBL1133576, “Structural basis of the thrombin selectivity of a ligand that contains the constrained arginine mimic (2S)-2-amino-(3S)-3-(1-carbamimidoyl- piperidin-3-yl)-propanoic acid at P1” (J Med Chem, 2000)

What was measured:
Prothrombin = Prothrombin (Homo sapiens, UniProt P00734); experiment: Inhibitory activity towards Thrombin
Serine protease 1 = Serine protease 1 (Homo sapiens, UniProt P07477); experiment: Inhibitory activity towards Trypsin
Serine protease 1, sequence (P07477 whole entry): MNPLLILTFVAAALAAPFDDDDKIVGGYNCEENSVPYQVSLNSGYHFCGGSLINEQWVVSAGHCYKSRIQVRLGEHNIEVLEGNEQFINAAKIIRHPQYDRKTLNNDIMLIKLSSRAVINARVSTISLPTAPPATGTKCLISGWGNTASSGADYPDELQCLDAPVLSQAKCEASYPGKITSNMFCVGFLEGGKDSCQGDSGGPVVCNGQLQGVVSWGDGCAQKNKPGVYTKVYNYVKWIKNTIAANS

Row | Ki (Prothrombin) | IC50 (Serine protease 1) | Ki (Serine protease 1) | Structure (SMILES)
1 | 0.6 nM | 1 nM | – | N=C(N)NCCC[C@H](NC(=O)[C@@H]1CC[C@H]2CN(C(=O)CCc3ccccc3)CC(=O)N21)C(=O)c1nccs1
2 | 3.5 nM | – | 4000 nM | N=C(N)N1CCCC(C[C@H](NC(=O)[C@@H]2CC[C@H]3CN(C(=O)CCc4ccccc4)CC(=O)N32)C(=O)c2nccs2)C1 (some centres undefined)
